In patent EP3822285A1, “VARIANT NISIN PEPTIDES” (University College Cork-National University of Ireland, Cork, priority 2019, dated 2021):
Converted amounts (≈) assume the structure as drawn. “And” between values parts separate entries of the source, which are not always exact repeats. Equal values may be shown once.

What was measured:
L. lactis HP [1] = test: Deferred antagonism assay; format: cell-based; conditions: producing strain
Experimental: (§1) Mutagenesis of the nisA gene was carried out as described previously (Field et al., 2008). Briefly, saturation mutagenesis was carried out using pDF05 (pCI372-nisA) as template and using oligonucleotides containing an NNK codon in place of each native codon. PCR amplification was performed in a 50 µl reaction containing approximately 0.5 ng of target DNA (pDF05), 1 unit Phusion High-Fidelity DNA polymerase (Finnzymes, Finland), 1 mM dNTPs and 500 ng each of the appropriate forward and reverse oligonucleotide. The reaction was pre-heated at 98°C for 2 min, and then incubated for 29 cycles at 98°C for 30 s, 55°C for 15 s and 72°C for 3 min 30 s, and then finished by incubating at 72°C for 3 min 30 s. Amplified products were treated with Dpn1 (Stratagene) for 60 min at 37°C to digest template DNA and purified using the QIAquick PCR purification kit. Following transformation of E. coli Top 10 cells plasmid DNA was isolated and sequenced using primers pCI372FOR (5' […] 3') and pCI372REV (5' […] 3') to verify that mutagenesis had taken place. Approximately 150 transformants were chosen at random for each position and inoculated into 96-well plates containing GM17 chloramphenicol, incubated overnight and stored at -20°C after addition of 80% glycerol. Deferred antagonism assays were performed by replicating strains on GM17 agar plates and allowing them to grow overnight before overlaying with BHI agar (0.75% w/v agar) seeded with the appropriate indicator strain.
(§2) Previously, site-saturation mutagenesis-based strategies were used to generate strains producing bioengineered nisin derivatives in which all residues not involved in lanthionine ring formation (i.e. I1, T2, 14, S5, L6, P9, G10, K12, G14, A15, L16, M17, G18, N20, M21, K22, A24, H27, S29 130, H31, V32, S33 and K34) were each randomised to potentially all other natural amino acids, or whereby all three residues of the hinge-region (NMK) were randomised simultaneously (Rouse et al., 2012, Healy et al., 2013, Field et al., 2008). […] From this screen 76 variants of interest from the first round of screening were incorporated into a "mini-bank" for subsequent further analysis. The number of indicator strains was increased from five to thirteen to include S. uberis 43382, S. uberis DPC5344, S. dysgalactiae ATCC43078, L. lactis 303, L. cremoris KH, Lactobacillus bulgaricus NCDO2489, Lb. helveticus 2079 and Lb. acidophilus ATCC4356 (Table 1). Following this second round of screening, 6 variants of interest were deemed worthy of closer inspection. DNA sequencing of the mutated nisin gene as well as mass spectrometric analysis of the peptide produced by each strain established that these corresponded to nisin M17Q (methionine at position 17 altered to glutamine), nisin T2L (threonine 2 leucine) nisin HTK, VGA, VGV or VGT (where the hinge residues Asn-Met-Lys have been altered to His-Thr-Lys, Val-Gly-Ala, Val-Gly-Val or Val-Gly-Thr respectively). […] As a result, these derivatives were eliminated from this study, but will be the subject of further investigation as potential anti-mastitis antimicrobials. […] In the case of the derivatives nisin T2L and nisin HTK, the activity appeared reduced and equivalent to nisin A respectively (Figure 1), while improved activity was observed by both derivatives against S. agalactiae ATCC13813 and S. aureus RF122 (Table 2). On this basis, the nisin derivatives M17Q, T2L and HTK were selected for purification and specific activity assays. Purified peptides were subjected to Mass Spectrometry to confirm the correct mass in each case. In the case of T2L and HTK derivatives, the threonine remained in the unmodified form (data not shown).

L. lactis MG1363 [2] = test: Deferred antagonism assay; format: cell-based; conditions: producing strain
Experimental: as §1, §2

S. agalactiae ATCC13813 = test: Deferred antagonism assay; format: cell-based; conditions: producing strain
Experimental: as §1, §2

S. aureus RF122 [3] = test: Deferred antagonism assay; format: cell-based; conditions: producing strain
Experimental: as §1, §2

B. longum UCC 44b = format: cell-based
Experimental: (§3) Minimum inhibitory concentration determinations were carried out in triplicate in 96 well microtitre plates. 96 well microtitre plates were pre-treated with bovine serum albumin (BSA) prior to addition of the peptides. Briefly, to each well of the microtitre plate 200 µL of phosphate buffered saline (PBS) containing 1% (w/v) bovine serum albumin (PBS/BSA) was added and incubated at 37°C for 30 min. The wells were washed with 200 µL PBS and allowed to dry. Target strains were grown overnight in the appropriate conditions and medium, subcultured into fresh broth and allowed to grow to an OD600 of ∼0.5, diluted to a final concentration of 10^5 cfu ml^-1 in a volume of 0.2 ml. The lyophilised peptides were resuspended in the appropriate media to a stock concentration of 30 µM. Wild type nisin and nisin mutant peptides were adjusted to a 7.5 or 5.0 µM or 500 nM starting concentration and 2-fold serial dilutions of each peptide were made in 96 well plates for a total of 12 dilutions.
(§4) To confirm that the observed enhanced activity of the nisin variants was due to increased specific activity, the activity of purified peptides were assessed using classical broth-based minimum inhibitory concentration (MIC) determination assays. […] Also included were the lactic acid bacteria targets L. lactis MG1363, L. lactis spp. lactis HP, B. longum UCC44b and Lb acidophilus ATCC 4356.

L. lactis MG1363 [4] = format: cell-based
Experimental: as §3, §4

[5] = test system: Lb. acidophilus ATCC 4356; format: cell-based
Experimental: as §3, §4

S. aureus 20777 = format: cell-based
Experimental: as §3, §4

S. aureus 54072 = format: cell-based
Experimental: as §3, §4

S. aureus NCDO1499 = format: cell-based
Experimental: as §3, §4

S. aureus RF122 [6] = format: cell-based
Experimental: as §3, §4

L. lactis HP [7] = test: Minimum inhibitory concentration assay; format: cell-based
Experimental: as §3, §4

S. aureus 272 = test: Minimum inhibitory concentration assay; format: cell-based; conditions: purified peptide
Experimental: as §3, §4

S. aureus 513 = test: Minimum inhibitory concentration assay; format: cell-based; conditions: purified peptide
Experimental: as §3, §4

S. aureus 5971 = test: Minimum inhibitory concentration assay; format: cell-based; conditions: purified peptide
Experimental: as §3, §4

S. aureus DPC 5243 = test: Minimum inhibitory concentration assay; format: cell-based; conditions: purified peptide
Experimental: as §3, §4

S. aureus DPC 5245 = test: Minimum inhibitory concentration assay; format: cell-based; conditions: purified peptide
Experimental: as §3, §4

S. aureus DPC 5247 = test: Minimum inhibitory concentration assay; format: cell-based; conditions: purified peptide
Experimental: as §3, §4

S. aureus ST528(MRSA) = test: Minimum inhibitory concentration assay; format: cell-based; conditions: S. aureus ST528(MRSA); purified peptide
Experimental: as §3, §4

S. aureus ST534(MRSA) = test: Minimum inhibitory concentration assay; format: cell-based; conditions: S. aureus ST534(MRSA); purified peptide
Experimental: as §3, §4

S. aureus strains = test: Minimum inhibitory concentration assay, panel of S. aureus strains; format: cell-based; conditions: panel of 12 S. aureus isolates; compared to nisin A
Experimental: as §3, §4

[8] = positive charge at position 17 replacing Methionine; Wiedemann et al., 2001; cited from earlier work

Compound: C=C(NC(=O)[C@@H](NC(=O)[C@H](Cc1c[nH]cn1)NC(=O)[C@@H](NC(=O)[C@H](CO)NC(=O)[C@@H]1CS[C@@H](C)[C@H]2NC(=O)[C@H](C)NC(=O)[C@H](NC(=O)[C@H](CCCCN)NC(=O)[C@@H](NC(=O)[C@H](Cc3c[nH]cn3)NC(=O)[C@@H]3CS[C@@H](C)[C@@H](NC(=O)[C@H](CCCCN)NC(=O)[C@@H]4CS[C@@H](C)[C@@H](NC(=O)[C@@H]5CSC[C@@H](NC(=O)/C(=C/C)NC(=O)[C@@H](N)[C@@H](C)CC)C(=O)N[C@@H]([C@@H](C)CC)C(=O)NC(=C)C(=O)N[C@@H](CC(C)C)C(=O)N5)C(=O)N5CCC[C@H]5C(=O)NCC(=O)N4)C(=O)NCC(=O)N[C@@H](C)C(=O)N[C@@H](CC(C)C)C(=O)N[C@@H](CCSC)C(=O)NCC(=O)N3)[C@@H](C)O)[C@H](C)SC[C@H](NC2=O)C(=O)N[C@@H](Cc2c[nH]cn2)C(=O)N1)[C@@H](C)CC)C(C)C)C(=O)N[C@@H](CCCCN)C(=O)O [HTK, nisin HTK]
- zone of inhibition (area of the zone of inhibition minus the area of the spot) (L. lactis HP [1]): 230.58 ± 6.71 mm2
- zone of inhibition (area of the zone of inhibition minus the area of the spot) (L. lactis MG1363 [2]): 137.70 ± 5.40 mm2
- zone of inhibition (area of the zone of inhibition minus the area of the spot) (S. agalactiae ATCC13813): 148.14 ± 3.66 mm2
- zone of inhibition (area of the zone of inhibition minus the area of the spot) (S. aureus RF122 [3]): 106.66 ± 3.00 mm2
- MIC (B. longum UCC 44b): 0.24 µg/mL (≈ 0.0717 µM)
- fold decreased activity compared to wild type peptide (B. longum UCC 44b): 4 fold
- MIC (L. lactis MG1363 [4]): 0.4 µg/mL (≈ 0.12 µM)
- MIC [5]: 0.12 µg/mL (≈ 0.0359 µM)
- fold reduction in specific activity compared to wild type nisin A [5]: 4 fold
- Specific activity (MIC) ([5]; purified peptide): 0.12 Mg/L and 0.044 µM
- MIC (S. aureus 20777): 0.125 µg/mL (≈ 0.0373 µM)
- MIC (S. aureus 54072): 0.25 µg/mL (≈ 0.0747 µM)
- MIC (S. aureus NCDO1499): 0.03 µg/mL (≈ 0.00896 µM)
- MIC (S. aureus RF122 [6]): 1 µg/mL (≈ 0.299 µM)
- fold reduction in potency (L. lactis HP [7]; compared to wild-type nisin A): 2 fold
- Specific activity (MIC) (L. lactis HP [7]; purified peptide): 0.4 Mg/L and 0.125 µM
- Specific activity (MIC) (S. aureus 272): 6 Mg/L and 1.875 µM
- Specific activity (MIC) (S. aureus 513): 6 Mg/L and 1.875 µM
- Specific activity (MIC) (S. aureus 5971): 12.57 Mg/L and 3.75 µM
- Specific activity (MIC) (S. aureus DPC 5243): 1 Mg/L and 0.312 µM
- Specific activity (MIC) (S. aureus DPC 5245): 1 Mg/L and 0.312 µM
- Specific activity (MIC) (S. aureus DPC 5247): 1 Mg/L and 0.312 µM
- Specific activity (MIC) (S. aureus ST528(MRSA)): 0.25 Mg/L and 0.078 µM
- Specific activity (MIC) (S. aureus ST534(MRSA)): 1 Mg/L and 0.312 µM
- number of S. aureus strains with enhanced specific activity (S. aureus strains): 6

Compound: Nisin Z M17K
- antimicrobial activity reduced to [8]: 50%
